Data as given in PubChem BioAssay AID248 (DTP/NCI, 2004).
Several values for one entry are separate records, joined by “and”; a condition that tells them apart may be missing. Equal entries are not always repeated. Toxic doses and inconclusive results are not listed.

Test system: L1210 leukemia ip in BDF1 mice, survival T/C
Assay: NCI In Vivo Anticancer Drug Screen. Data for tumor model L1210 Leukemia (intraperitoneal) in B6D2F1 (BDF1) mice
Conditions: higher = longer survival
Procedure, shortened: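 Mice bearing the transplanted tumor received compound or vehicle. Survival of the treated group was divided by that of the vehicle-treated control group to give the ratio.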

[1] = endpoint: mean survival time, dose: 100.0 mg/kg/injection, schedule: Q04DX002 (ip), vehicle: saline with Tween-80
[2] = endpoint: mean survival time, dose: 200.0 mg/kg/injection, schedule: Q04DX002 (ip), vehicle: saline with Tween-80
[3] = endpoint: mean survival time, dose: 100.0 mg/kg/injection, schedule: Q04DX003 (ip), vehicle: Klucel (hydroxypropylcellulose) (HPC)
[4] = endpoint: mean survival time, dose: 200.0 mg/kg/injection, schedule: Q04DX003 (ip), vehicle: Klucel (hydroxypropylcellulose) (HPC)

Structure (SMILES): CNNCc1ccc(C(=O)NC(C)C)cc1
- T/C (endpoint: mean survival time, dose: 6.5 mg/kg/injection, schedule: Q01DX009 (ip), vehicle: saline): 110 % of control and 112 % of control
- T/C (endpoint: mean survival time, dose: 8.0 mg/kg/injection, schedule: Q01DX009 (ip), vehicle: saline): 121 % of control
- T/C (endpoint: mean survival time, dose: 12.0 mg/kg/injection, schedule: Q04DX002 (ip), vehicle: saline): 93 % of control and 91 % of control
- T/C (endpoint: mean survival time, dose: 13.0 mg/kg/injection, schedule: Q01DX Z (ip), vehicle: saline): 117 % of control
- T/C (endpoint: mean survival time, dose: 16.0 mg/kg/injection, schedule: Q01DX009 (oral), vehicle: saline): 116 % of control
- T/C (endpoint: mean survival time, dose: 16.0 mg/kg/injection, schedule: Q03HX008 (ip), vehicle: saline): 106 % of control
- T/C (endpoint: mean survival time, dose: 16.0 mg/kg/injection, schedule: Q03HX016 (ip), vehicle: saline): 112 % of control
- T/C (endpoint: mean survival time, dose: 16.0 mg/kg/injection, schedule: Q03HX016 (oral), vehicle: saline): 106 % of control
- T/C (endpoint: mean survival time, dose: 19.0 mg/kg/injection, schedule: Q01DX Z (ip), vehicle: saline): 117 % of control
- T/C (endpoint: mean survival time, dose: 24.0 mg/kg/injection, schedule: Q04DX002 (ip), vehicle: saline): 97 % of control
- T/C (endpoint: mean survival time, dose: 25.0 mg/kg/injection, schedule: Q01DX009 (ip), vehicle: saline): 110 % of control and 117 % of control
- T/C (endpoint: mean survival time, dose: 25.0 mg/kg/injection, schedule: Q#A X020 (ip), vehicle: saline): 151 % of control
- T/C (endpoint: mean survival time, dose: 32.0 mg/kg/injection, schedule: Q03HX008 (ip), vehicle: saline): 112 % of control
- T/C (endpoint: mean survival time, dose: 32.0 mg/kg/injection, schedule: Q03HX016 (ip), vehicle: saline): 117 % of control
- T/C (endpoint: mean survival time, dose: 37.5 mg/kg/injection, schedule: Q01DX009 (ip), vehicle: saline): 120 % of control and 123 % of control
- T/C (endpoint: mean survival time, dose: 50.0 mg/kg/injection, schedule: Q#A X020 (ip), vehicle: saline): 157 % of control
- T/C (endpoint: mean survival time, dose: 62.0 mg/kg/injection, schedule: Q01DX009 (ip), vehicle: saline): 155 % of control
- T/C (endpoint: mean survival time, dose: 64.0 mg/kg/injection, schedule: Q03HX008 (ip), vehicle: saline): 110 % of control
- T/C (endpoint: mean survival time, dose: 64.0 mg/kg/injection, schedule: Q03HX024 (ip), vehicle: saline): 157 % of control
- T/C (endpoint: mean survival time, dose: 100.0 mg/kg/injection, schedule: Q01DX010 (ip), vehicle: saline): 151 % of control
- T/C (endpoint: mean survival time, dose: 100.0 mg/kg/injection, schedule: Q01DX010 (oral), vehicle: saline): 159 % of control
- T/C (endpoint: mean survival time, dose: 125.0 mg/kg/injection, schedule: Q01DX009 (ip), vehicle: clinical formulation): 158 % of control
- T/C (endpoint: mean survival time, dose: 125.0 mg/kg/injection, schedule: Q01DX009 (ip), vehicle: saline): 167 % of control
- T/C (endpoint: mean survival time, dose: 128.0 mg/kg/injection, schedule: Q01DX001 (ip), vehicle: saline): 109 % of control
- T/C (endpoint: mean survival time, dose: 128.0 mg/kg/injection, schedule: Q01DX001 (iv), vehicle: saline): 104 % of control
- T/C (endpoint: mean survival time, dose: 128.0 mg/kg/injection, schedule: Q01DX001 (oral), vehicle: saline): 106 % of control
- T/C (endpoint: mean survival time, dose: 128.0 mg/kg/injection, schedule: Q01DX009 (oral), vehicle: saline): 155 % of control and 164 % of control
- T/C (endpoint: mean survival time, dose: 128.0 mg/kg/injection, schedule: Q03HX008 (ip), vehicle: saline): 121 % of control
- T/C (endpoint: mean survival time, dose: 128.0 mg/kg/injection, schedule: Q04DX003 (ip), vehicle: saline): 121 % of control
- T/C (endpoint: mean survival time, dose: 128.0 mg/kg/injection, schedule: Q08DX002 (oral), vehicle: saline): 106 % of control
- T/C (endpoint: mean survival time, dose: 133.0 mg/kg/injection, schedule: Q01DX009 (ip), vehicle: saline): 150 % of control
- T/C (endpoint: mean survival time, dose: 150.0 mg/kg/injection, schedule: Q01DX009 (ip), vehicle: saline): 159 % of control
- T/C (endpoint: mean survival time, dose: 250.0 mg/kg/injection, schedule: Q01DX001 (ip), vehicle: saline): 112 % of control and 121 % of control
- T/C (endpoint: mean survival time, dose: 250.0 mg/kg/injection, schedule: Q01DX009 (ip), vehicle: clinical formulation): 184 % of control
- T/C (endpoint: mean survival time, dose: 250.0 mg/kg/injection, schedule: Q01DX009 (ip), vehicle: water): 188 % of control
- T/C (endpoint: mean survival time, dose: 256.0 mg/kg/injection, schedule: Q01DX001 (iv), vehicle: saline): 99 % of control
- T/C (endpoint: mean survival time, dose: 256.0 mg/kg/injection, schedule: Q01DX001 (oral), vehicle: saline): 110 % of control
- T/C (endpoint: mean survival time, dose: 256.0 mg/kg/injection, schedule: Q08DX002 (ip), vehicle: saline): 104 % of control
- T/C (endpoint: mean survival time, dose: 300.0 mg/kg/injection, schedule: Q01DX009 (ip), vehicle: saline): 166 % of control
- T/C (endpoint: mean survival time, dose: 320.0 mg/kg/injection, schedule: Q01DX010 (oral), vehicle: saline): 117 % of control
- T/C (endpoint: mean survival time, dose: 400.0 mg/kg/injection, schedule: Q01DX010 (im), vehicle: saline): 86 % of control
- T/C (endpoint: mean survival time, dose: 400.0 mg/kg/injection, schedule: Q01DX010 (oral), vehicle: saline): 116 % of control
- T/C (endpoint: mean survival time, dose: 400.0 mg/kg/injection, schedule: Q01DX010 (sc), vehicle: saline): 90 % of control
- T/C (endpoint: mean survival time, dose: 512.0 mg/kg/injection, schedule: Q04DX003 (ip), vehicle: saline): 155 % of control
- T/C (endpoint: mean survival time, dose: 512.0 mg/kg/injection, schedule: Q04DX003 (oral), vehicle: saline): 151 % of control
- T/C (endpoint: mean survival time, dose: 758.0 mg/kg/injection, schedule: Q04DX002 (ip), vehicle: saline): 103 % of control
- T/C (endpoint: median survival time, dose: 300.0 mg/kg/injection, schedule: Q01DX009 (ip), vehicle: saline): 166 % of control and 170 % of control
- T/C (endpoint: median survival time, dose: 500.0 mg/kg/injection, schedule: Q01DX009 (ip), vehicle: saline): 49 % of control and 54 % of control

Structure (SMILES): COC(=O)c1ccccc1NC(OC)c1cccc([N+](=O)[O-])c1 (stereo not given)
- T/C (endpoint: mean survival time, dose: 100.0 mg/kg/injection, schedule: Q01DX001 (ip), vehicle: saline with Tween-80): 90 % of control
- T/C [1]: 93 % of control and 89 % of control
- T/C (endpoint: mean survival time, dose: 100.0 mg/kg/injection, schedule: Q04DX003 (ip), vehicle: saline with Tween-80): 92 % of control
- T/C (endpoint: mean survival time, dose: 200.0 mg/kg/injection, schedule: Q01DX001 (ip), vehicle: saline with Tween-80): 92 % of control
- T/C [2]: 86 % of control and 90 % of control
- T/C (endpoint: mean survival time, dose: 200.0 mg/kg/injection, schedule: Q04DX003 (ip), vehicle: saline with Tween-80): 92 % of control
- T/C (endpoint: mean survival time, dose: 400.0 mg/kg/injection, schedule: Q01DX001 (ip), vehicle: saline with Tween-80): 87 % of control
- T/C (endpoint: mean survival time, dose: 400.0 mg/kg/injection, schedule: Q04DX002 (ip), vehicle: saline with Tween-80): 87 % of control
- T/C (endpoint: mean survival time, dose: 400.0 mg/kg/injection, schedule: Q04DX003 (ip), vehicle: saline with Tween-80): 89 % of control

Structure (SMILES): Cc1ccccc1SC(=O)Nc1cc(C(F)(F)F)ccc1Cl
- T/C (endpoint: mean survival time, dose: 100.0 mg/kg/injection, schedule: Q01DX009 (ip), vehicle: Klucel (hydroxypropylcellulose) (HPC)): 100 % of control
- T/C (endpoint: mean survival time, dose: 200.0 mg/kg/injection, schedule: Q01DX009 (ip), vehicle: Klucel (hydroxypropylcellulose) (HPC)): 98 % of control
- T/C (endpoint: mean survival time, dose: 400.0 mg/kg/injection, schedule: Q01DX009 (ip), vehicle: Klucel (hydroxypropylcellulose) (HPC)): 100 % of control

Structure (SMILES): O=[N+]([O-])c1cc([N+](=O)[O-])c(Cl)cc1Cl
- T/C (endpoint: mean survival time, dose: 3.13 mg/kg/injection, schedule: Q01DX009 (ip), vehicle: Klucel (hydroxypropylcellulose) (HPC)): 101 % of control
- T/C (endpoint: mean survival time, dose: 6.25 mg/kg/injection, schedule: Q01DX009 (ip), vehicle: Klucel (hydroxypropylcellulose) (HPC)): 106 % of control
- T/C (endpoint: mean survival time, dose: 12.5 mg/kg/injection, schedule: Q01DX009 (ip), vehicle: Klucel (hydroxypropylcellulose) (HPC)): 106 % of control
- T/C [3]: 96 % of control
- T/C [4]: 89 % of control

Structure (SMILES): CC(C)NCc1ccccc1
- T/C [1]: 95 % of control
- T/C [2]: 98 % of control

Structure (SMILES): O=C(Nc1ccccc1)NC(O)C(Cl)(Cl)Cl (stereo not given)
- T/C [3]: 95 % of control
- T/C [4]: 95 % of control
- T/C (endpoint: mean survival time, dose: 400.0 mg/kg/injection, schedule: Q04DX003 (ip), vehicle: Klucel (hydroxypropylcellulose) (HPC)): 98 % of control

Structure (SMILES): O=C1Cc2ncccc2N1
- T/C (endpoint: mean survival time, dose: 100.0 mg/kg/injection, schedule: Q01DX001 (ip), vehicle: saline): 107 % of control
- T/C (endpoint: mean survival time, dose: 200.0 mg/kg/injection, schedule: Q01DX001 (ip), vehicle: saline): 100 % of control
- T/C (endpoint: mean survival time, dose: 400.0 mg/kg/injection, schedule: Q01DX001 (ip), vehicle: saline): 114 % of control

Structure (SMILES): CCOC(=O)c1ccc(NCCC(=O)CBr)cc1
- T/C (endpoint: mean survival time, dose: 5.0 mg/kg/injection, schedule: Q01DX001 (ip), vehicle: carboxymethylcellulose (CMC)): 97 % of control
- T/C (endpoint: mean survival time, dose: 10.0 mg/kg/injection, schedule: Q01DX001 (ip), vehicle: carboxymethylcellulose (CMC)): 97 % of control
- T/C (endpoint: mean survival time, dose: 20.0 mg/kg/injection, schedule: Q01DX001 (ip), vehicle: carboxymethylcellulose (CMC)): 92 % of control
- T/C (endpoint: mean survival time, dose: 40.0 mg/kg/injection, schedule: Q01DX001 (ip), vehicle: carboxymethylcellulose (CMC)): 100 % of control

Structure (SMILES): CC1CN=C(c2ccc(O)c(O)c2)S1 (stereo not given)
- T/C (endpoint: mean survival time, dose: 100.0 mg/kg/injection, schedule: Q04DX002 (ip), vehicle: saline): 107 % of control
- T/C (endpoint: mean survival time, dose: 200.0 mg/kg/injection, schedule: Q04DX002 (ip), vehicle: saline): 107 % of control
- T/C (endpoint: mean survival time, dose: 400.0 mg/kg/injection, schedule: Q04DX002 (ip), vehicle: saline): 100 % of control
